Data on one molecule can be found in patent US12036222B2, “Methods of treating cancers overexpressing CARM1 with EZH2 inhibitors and a PARP inhibitor” (The Wistar Institut of Anatomy and Biology, priority 2018, dated 2024).

For test [1], the system named is tumors formed by CARM1 knockout A1847 cells. In words: Subcutaneous xenograft model, CARM1 knockout A1847 cells. It counts as in vivo, NSG mice. The following applies: 50 mg/kg daily i.p. The protocol:
The protocols were approved by the Institutional Animal Care and Use Committee (IACUC). 5×10^6 control A1847 or A1847 CARM1 knockout cells were unilaterally injected subcutaneously into 6-8-week old female immunocompromised NSG mice (n=5 per group). One week after injection the mice were randomized and treated with vehicle control (20% captisol) or GSK126 (50 mg/kg daily). Tumor size was measured every 3 days for 3 weeks. At end of the experiments, tumors were surgically dissected and tumor burden was calculated based on tumor weight.
EZH2 inhibitors, such as GSK126, are used safely in clinical trials for hematopoietic malignancies (Ribrag et al. Eur J Cancer (2014) 50:197). To determine the effects of EZH2 inhibition in vivo on the growth of CARM1-expressing ovarian tumors, two xenograft models were utilized. In the subcutaneous xenograft models, the injected CARM1-expressing A1847 cells were first allowed to grow for one week to establish the tumors. Mice were then randomized and treated daily with vehicle control or GSK126 (50 mg/kg) by intraperitioneal (i.p.) injection as reported (see, e.g., Bitler et al. Nature Medicine (2015) 21:231-8 and McCabe et al. Nature (2012) 492:108-12). […] To more closely mimic the tumor microenvironment, A1847 cells were orthotopically transplanted into the bursa covering the ovary of immunocompromised NSG mice. […]

Test [2] has as its system orthotopically-transplanted CARM1-expressing tumors. In words: Intrabursal orthotopic xenograft model, CARM1-expressing A1847 cells. It counts as in vivo, NSG mice. As to the method: The protocols were approved by the Institutional Animal Care and Use Committee (IACUC). For in vivo experiments, the sample size of 5 mice per group was determined based on the data shown from in vitro experiments. Intrabursal orthotopic xenograft was performed as described in Bitler, et al. Nature Medicine (2015) 21:231-8 and Bitler et al. Cancer Research (2011) 71:6184-94. Briefly, 1×10^6 A1847 parental or A1847 CARM1 knockout cells were unilaterally injected into the ovarian bursa of 6-8-week old female immunocompromised NSG mice (n=5 per group). One week after injection the mice were randomized into two groups and treated with vehicle control (20% captisol) or GSK126 (50 mg/kg daily) for three weeks. At the end of the experiments, tumors were surgically dissected and tumor burden was calculated based on tumor weight. For survival experiments, after stopping the treatment, the mice were followed for mortality or when the tumor burden reached 10% of body weight as determined by The Wistar Institute IACUC guideline.
EZH2 inhibitors, such as GSK126, are used safely in clinical trials for hematopoietic malignancies (Ribrag et al. Eur J Cancer (2014) 50:197). To determine the effects of EZH2 inhibition in vivo on the growth of CARM1-expressing ovarian tumors, two xenograft models were utilized. […]

In test [3] the test system is NHEJ genes. In words: Expression of NHEJ genes. It is filed as cell-based. The following applies: CARM1 expressing cells.
The subject of test [4] is CARM1-low EOC cells such as CAOV3 and PEO1. In words: Colony formation assay in CARM1-low EOC cells. As to conditions: 10 μM GSK126. It is filed as cell-based, human. The protocol: FIG. 33 illustrates relative growth of the indicated HOSE, FTE, and EOC cancer cell lines with high or low CARM1 expression treated with 10 μM GSK126 or vehicle in a colony formation assay as determined by NIH Image J quantification.
500 to 5,000 cell were plated into a 24 well tissue culture plate and treated with the indicated compounds. Medium was changed every three days with appropriate drug doses for 12 days or until control wells became confluent. Colonies were washed twice with PBS and fixed with 10% methanol and 10% acetic acid in distilled water. Fixed colonies were stained with 0.005% crystal violet. Integrated density was measured using NIH ImageJ software.

For test [5], the system named is A1847 parental and CARM1 knockout cells. In words: Epigenetic targeting small molecule set screen (14-day colony formation). It counts as cell-based, human. The following applies: 14 days, normalized to vehicle. As to the method:
FIG. 26 illustrates that CARM1-expressing cells are selectively sensitized to EZH2 inhibitors. Equal number of parental control or CARM1 knockout […] cells were plated and treated with each of the 23 individual epigenetic inhibitors for 14 days. The media with the inhibitors was refreshed every 3 days. Cell growth was quantified as integrated density using NIH Image J software. Quantification of the average integrated density graphed as a scatter plot. The X-axis indicates the relative growth of treated CARM1 high parental […] cells compared with DMSO vehicle controls. Y-axis indicates the relative growth of treated CARM1 knockout […] cells compared with DMSO vehicle controls. n=4; and error bars represents SEM. FIG. 27 illustrates a table of EZH2 inhibitors that are selective against CARM1 expression. CARM1-high parental controls and CARM1 knockout […] cells were treated with the indicated concentration of the small molecules in a 14-day colony formation assay. Integrated density for each well was calculated using NIH Image J software. The relative growth of the indicated cells was determined by normalizing to the vehicle control treated cells. n=4 and p-value was calculated using a two-tailed t-test. […] parental and CARM1 knockout cells were plated in 24-well plates and treated with 24 epigenetic compounds. Cell medium was changed every three days with appropriate drug doses for 14 days or until control wells became confluent. Colonies were washed twice with PBS and fixed with 10% methanol and 10% acetic acid in distilled water. Fixed colonies were stained with 0.005% crystal violet. Integrated density was measured using NIH ImageJ software as a surrogate for cell growth.

Test [6] deals with CARM1-depleted cells. The test is described as follows: Sensitization to Olaparib in CARM1-depleted cells. It counts as cell-based. As to conditions: data not shown. The source says:
Therefore, CARM1-expressing EOC can be treated and ultimately eradicated by combinatory targeting EZH2 and PARP using clinically applicable small molecule inhibitors.

Test [7] deals with TIMP3. In words: qRT-PCR of BAF155Me target gene in cells. As to conditions: parental and CARM1 knockout A1847 cells, 10 μM GSK126. It is filed as cell-based, human. As to the method:
FIG. 57 illustrates the relative mRNA expression of BAF155Me target gene TIMP3, which was determined by qRT-PCR. Parental control and CARM1 knockout A1847 cells were treated with 10 μM GSK126 or vehicle controls. *p<0.001. Mean of three independent experiments with SEM.
RNA was isolated by RNeasy Mini Kit (Qiagen). mRNA relative expression for DAB2, DLC1, and PMAIP was determined using SYBR green 1-step iScript (Bio-Rad) with a Life Technologies QuantStudio 3. The primers were: 5′-[…]-3′ (DAB2 forward (SEQ ID NO: 2)) and 5′-[…]-3′ (DAB2 reverse (SEQ ID NO: 3)); 5′-[…]-3′ (DLC1 forward (SEQ ID NO: 4)) and 5′-[…]-3′ (DLC1 reverse (SEQ ID NO: 5)); 5′-[…]-3′ (NOXA forward (SEQ ID NO: 6)) and 5′-[…]-3′ (NOXA reverse (SEQ ID NO: 7)); and 5′-[…]-3′ (TIMP3 forward (SEQ ID NO: 8)) and 5′-[…]-3′ (TIMP3 reverse (SEQ ID NO: 9)).
(Real-time PCR tracks product formation cycle by cycle.)

Entries after “also recorded” stand apart in the source; their conditions may differ.

As for `CC[C@H](C)n1cc(C)c2c(C(=O)NCc3c(C)cc(C)[nH]c3=O)cc(-c3ccc(N4CCNCC4)nc3)cc21` [GSK126, (S)-1-(sec-butyl)-N-((4,6-dimethyl-2-oxo-1,2-dihydropyridin-3-yl)methyl)-3-methyl-6-(6-(piperazin-1-yl)pyridin-3-yl)-1H-indole-4-carboxamide], the “growth of tumors formed by CARM1 knockout A1847 cells” value in test [1] is given as “failed to inhibit the growth”. In addition, in test [2] (50 mg/kg daily i.p., three weeks), the “growth of CARM1-expressing tumors” value was “significantly inhibited”. Also, the “survival of tumor bearing mice” value in test [2] (followed after stopping treatment, vs controls) is reported as “significantly improved the survival”. In addition, the “expression of NHEJ genes” value in test [3] is “restores the expression of NHEJ genes”. Further, the “response of CARM1-low EOC cells” value in test [4] is “did not respond”. For the same molecule, in test [5], the “selective growth suppression of CARM1-expressing vs CARM1 KO cells” value is recorded as “showed selectivity against CARM1-expressing cells; also recorded: selectively sensitive”. In addition, in test [6], the “sensitization to Olaparib” value is “did not promote sensitization to Olaparib”. Besides, the “expression of BAF155Me target gene TIMP3” value in test [7] is reported as “downregulated by CARM KO but not by EZH2 inhibitor GSK126”.
